According to US20150259344A1, “IMIDAZOLE DERIVATIVE” (DAINIPPON SUMITOMO PHARMA CO., LTD., priority 2012, published 2015):

Biological target: T1, human α7 nAChR (Homo sapiens, UniProt P36544)
T1 construct: expressed in transfected cells
Assay: Evaluation of PAM activity with human α7 nACh receptor stably expressing cells (aequorin luminescence, FDSS7000)
Type: cell-based
Conditions: 1 μM test compound (values marked *, footnote of Table 25); ACh at EC20; ratio of RLU (Max-Min) to control wells; read-out: α7PAM (%) @1 μM
Outline: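 Human α7 nAChR stable cells loaded with 4 μM Viviren (final) for 4 h at room temperature in the dark. Compounds in Hanks/20 mM HEPES/0.2% BSA were added and luminescence recorded on FDSS7000. PAM activity = RLU (Max-Min) ratio of test wells to control wells.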

T1 sequence (P36544 23-502): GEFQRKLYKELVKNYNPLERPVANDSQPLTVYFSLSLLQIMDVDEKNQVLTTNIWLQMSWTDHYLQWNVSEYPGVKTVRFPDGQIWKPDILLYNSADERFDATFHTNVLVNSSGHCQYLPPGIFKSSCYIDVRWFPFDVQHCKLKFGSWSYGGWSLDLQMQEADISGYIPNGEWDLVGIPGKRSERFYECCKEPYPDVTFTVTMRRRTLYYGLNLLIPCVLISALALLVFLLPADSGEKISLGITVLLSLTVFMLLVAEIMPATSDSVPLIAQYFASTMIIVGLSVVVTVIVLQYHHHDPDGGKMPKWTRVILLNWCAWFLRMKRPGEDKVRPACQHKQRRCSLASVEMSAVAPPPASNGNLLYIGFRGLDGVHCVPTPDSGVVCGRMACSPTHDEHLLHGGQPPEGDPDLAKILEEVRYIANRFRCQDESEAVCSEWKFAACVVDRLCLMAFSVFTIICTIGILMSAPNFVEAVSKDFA

Going from `CC(C)(C)C(=O)N[C@H]1CC[C@@H](n2cnc(-c3cccc(C(F)(F)F)c3)c2C#N)CC1` [Example 200] to `CC(C)(F)C(=O)N[C@H]1CC[C@@H](n2cnc(-c3ccc(F)c(OC(F)(F)F)c3)c2C#N)CC1` [Example 350], the activity at 1 µM rises from 180% to 670%.

Going from `CC(C)(F)C(=O)N[C@H]1CC[C@@H](n2cnc(-c3ccc(OC(F)(F)F)c(F)c3)c2)CC1` [Example 296] to `CC(C)(F)C(=O)N[C@H]1CC[C@@H](n2cnc(-c3cc(OC(F)(F)F)ccc3F)c2)CC1` [Example 304], the activity at 1 µM rises from 589% to 600%.

Compared with `CC(C)(F)C(=O)N[C@H]1CC[C@@H](n2cnc(-c3cc(F)cc(F)c3)c2C#N)CC1` [Example 343], `CC(C)(F)C(=O)N[C@H]1CC[C@@H](n2cnc(-c3cc(F)c(Cl)cc3F)c2)CC1` [Example 316] is lower in activity at 1 µM: 380% for the first, 267% for the second.

Going from `O=C(NC1CCOCC1)[C@H]1CC[C@@H](n2cnc(-c3cccc(F)c3F)c2)CC1` [Example 358] to `O=C(NC1CCC(F)(F)CC1)N1[C@@H]2CC[C@H]1C[C@@H](n1cnc(-c3cc(F)ccc3F)c1)C2` [Example 388], the activity at 1 µM rises from 126% to 335%.

First: O=C(N[C@H]1CC[C@@H](n2cnc(-c3ccc(F)cc3)c2Cl)CC1)c1ccc(F)cc1 [Example 184]
Second: CC(C)(F)C(=O)N[C@H]1CC[C@@H](n2cnc(-c3cc(Cl)c(F)cc3F)c2)CC1 [Example 318]
The activity at 1 µM of the first is higher: 303% for the first, 179% for the second.

Compared with `N#Cc1c(-c2cccc(F)c2F)ncn1[C@@H]1C[C@H]2CC[C@@H](C1)N2C(=O)C1CCC(F)(F)CC1` [Example 463], `O=C(NC1CCC(F)(F)CC1)N1[C@@H]2CC[C@H]1C[C@@H](n1cnc(-c3ccc(F)cc3F)c1)C2` [Example 384] is higher in activity at 1 µM: 181% for the first, 652% for the second.

`O=C(NC1CCC2(CC1)CC2)N1CCC(n2cnc(-c3cccc(F)c3)c2)CC1` [Example 46] was tested, and the activity at 1 µM was 104%.

Same assay, conditions: 10 μM test compound; ACh at EC20; ratio of RLU (Max-Min) to control wells

For `O=C(NC1CCCCC1)N1CCC(n2cnc(-c3cccs3)c2)CC1` [Example 129], the “α7PAM (%) @10 μM” value was 330%.

Same assay, conditions: 10 μM test compound; ACh at EC20; ratio of RLU (Max-Min) to control wells; read-out: α7PAM (%) @10 μM

Going from `Cc1c(-c2ccc(F)cc2)ncn1[C@H]1CC[C@@H](C(=O)NC2CCOCC2)CC1` [Example 381] to `N#Cc1c(-c2ccc(F)cc2)ncn1[C@H]1CC[C@@H](C(=O)NC2CCOCC2)CC1` [Example 373], the activity at 10 µM rises from 377% to 966%.

Going from `COc1ccc(-c2ncn(C3CCN(C(=O)NC4CCCC4)CC3)c2Cl)cc1` [Example 74] to `O=C(NC1CCCC1)N1CCC(n2cnc(-c3cccc(F)c3)c2Cl)CC1` [Example 83], the activity at 10 µM falls from 779% to 671%.

Compared with `COc1ccc(-c2cn([C@H]3CC[C@@H](NC(=O)C(C)(C)F)CC3)cn2)cc1Cl` [Example 308], `COc1ccc(-c2cn([C@H]3CC[C@@H](NC(=O)C(C)(C)F)CC3)cn2)cc1` [Example 285] is higher in activity at 10 µM: 513% for the first, 869% for the second.

First: CC(C)(F)C(=O)N1CCC(n2cnc(-c3ccc(F)cc3)c2)CC1 [Example 260]
Second: CC(C)(C)NC(=O)N1CCC(n2cnc(-c3ccc(F)cc3)c2)CC1 [Example 63]
The activity at 10 µM of the first is lower: 146% for the first, 160% for the second.

Compared with `N#Cc1c(-c2ccccc2)ncn1[C@H]1CC[C@@H](NC(=O)C2CC(F)(F)C2)CC1` [Example 203], `CC(C)(F)C(=O)N[C@H]1CC[C@@H](n2cnc(-c3ccccc3)c2C#N)CC1` [Example 197, N-[cis-4-(5-cyano-4-phenyl-1H-imidazol-1-yl)cyclohexyl]-2-fluoro-2-methylpropanamide] is lower in activity at 10 µM: 641% for the first, 637% for the second.

First: O=C(NC1CCCCCC1)N1CCC(n2cnc(-c3ccccc3)c2)CC1 [Example 51]
Second: O=C(NC1CCCCCC1)N1CCC(n2cnc(-c3cccc(F)c3)c2)CC1 [Example 45]
The activity at 10 µM of the first is higher: 520% for the first, 260% for the second.

First: O=C(C1CCC(F)(F)CC1)N1[C@@H]2CC[C@H]1C[C@@H](n1cnc(-c3cc(F)ccc3F)c1Cl)C2 [Example 437]
Second: O=C(C1CCC(F)(F)CC1)N1[C@@H]2CC[C@H]1C[C@@H](n1cnc(-c3ccc(F)cc3)c1Cl)C2 [Example 431]
The activity at 10 µM of the first is lower: 533% for the first, 836% for the second.

First: CCOc1ccc(-c2cn(C3CCN(C(=O)NC4CCC(F)(F)CC4)CC3)cn2)cc1 [Example 61]
Second: O=C(NC1CCC(F)(F)CC1)N1CCC(n2cnc(-c3cccc(F)c3)c2)CC1 [Example 32]
The activity at 10 µM of the first is lower: 915% for the first, 993% for the second.

First: CC(C)(C)C(=O)N[C@H]1CC[C@@H](n2cnc(-c3ccc(Cl)cc3)c2Cl)CC1 [Example 322]
Second: CC(C)(C)C(=O)N[C@H]1CC[C@@H](n2cnc(-c3ccc(OC(F)(F)F)cc3)c2Cl)CC1 [Example 321]
The activity at 10 µM of the first is lower: 314% for the first, 800% for the second.

Compared with `CC(C)(F)C(=O)N[C@H]1CC[C@@H](n2cnc(-c3ccc(F)c(F)c3F)c2)CC1` [Example 312], `CC(C)(F)C(=O)N[C@H]1CC[C@@H](n2cnc(-c3cccc(F)c3F)c2)CC1` [Example 299] is higher in activity at 10 µM: 662% for the first, 893% for the second.

First: COc1ccc(-c2ncn([C@H]3CC[C@@H](NC(=O)C(C)(C)F)CC3)c2Cl)cc1Cl [Example 178]
Second: COc1ccc(-c2ncn([C@H]3CC[C@@H](NC(=O)C4CCCC4)CC3)c2Cl)cc1Cl [Example 180]
The activity at 10 µM of the first is higher: 775% for the first, 375% for the second.

Going from `O=C(C1CCC(F)(F)CC1)N1[C@@H]2CC[C@H]1C[C@H](n1cnc(-c3cccc(F)c3F)c1)C2` [Example 450] to `O=C(C1CCC(F)(F)CC1)N1[C@@H]2CC[C@H]1C[C@@H](n1cnc(-c3ccccc3F)c1)C2` [Example 427], the activity at 10 µM rises from 128% to 305%.

First: CC(C)(F)C(=O)N[C@H]1CC[C@@H](n2cnc(-c3cc(F)cc(F)c3)c2)CC1 [Example 302]
Second: CC(C)(F)C(=O)N[C@H]1CC[C@@H](n2cnc(-c3cccc(F)c3)c2)CC1 [Example 294]
The activity at 10 µM of the first is lower: 325% for the first, 326% for the second.

Compared with `O=C(NC1CCCCC1)N1[C@@H]2CC[C@H]1C[C@H](n1cnc(-c3cccc(F)c3F)c1)C2` [Example 410], `N#Cc1c(-c2cccc(F)c2F)ncn1[C@H]1C[C@H]2CC[C@@H](C1)N2C(=O)NC1CCC(F)(F)CC1` [Example 404] is higher in activity at 10 µM: 197% for the first, 292% for the second.

Going from `O=C(NC1CCC(F)(F)CC1)N1CCC(n2cnc(-c3cccc(OC(F)F)c3)c2)CC1` [Example 59] to `CC1(NC(=O)N2CCC(n3cnc(-c4cccc(F)c4)c3)CC2)CCC1` [Example 31], the activity at 10 µM falls from 707% to 300%.

Compared with `O=C(NC1CCCC1)N1CCC(n2cnc(-c3cccs3)c2)CC1` [Example 121], `Cc1ccccc1-c1cn(C2CCN(C(=O)NC3CCCCC3)CC2)cn1` [Example 14] is higher in activity at 10 µM: 201% for the first, 351% for the second.

Going from `CC(C)(F)C(=O)N[C@H]1CC[C@@H](n2cnc(-c3ccccc3F)c2)CC1` [Example 297] to `CC(C)(F)C(=O)N[C@H]1CC[C@@H](n2cnc(-c3cccc(OC(F)(F)F)c3)c2)CC1` [Example 298], the activity at 10 µM falls from 866% to 166%.

Compared with `O=C(NC1COC1)[C@H]1CC[C@@H](n2cnc(-c3ccc(C(F)(F)F)cc3)c2Cl)CC1` [Example 361], `O=C(NC1CCOCC1)[C@H]1CC[C@@H](n2cnc(-c3ccccc3F)c2Cl)CC1` [Example 360] is lower in activity at 10 µM: 794% for the first, 598% for the second.

Compared with `N#Cc1c(-c2cc(F)ccc2F)ncn1[C@H]1CC[C@@H](C(=O)NC2CCOCC2)CC1` [Example 375], `CC(C)(F)C(=O)N[C@H]1CC[C@@H](n2cnc(-c3cccc(F)c3)c2C#N)CC1` [Example 338] is lower in activity at 10 µM: 457% for the first, 192% for the second.

Going from `O=C(N[C@H]1CC[C@@H](n2cnc(-c3ccccc3)c2Cl)CC1)C1CCCCC1` [Example 168] to `O=C(N[C@H]1CC[C@H](n2cnc(-c3ccccc3)c2)CC1)C1CCCCC1` [Example 204], the activity at 10 µM falls from 829% to 172%.

Going from `O=C(NC1CCOCC1)N1CCC(n2cnc(-c3ccc(F)cc3)c2)CC1` [Example 245] to `O=C(NC1CCOCC1)N1CCC(n2cnc(-c3cccc(F)c3)c2Cl)CC1` [Example 253], the activity at 10 µM rises from 197% to 899%.

Compared with `CC(C)(C)NC(=O)N1CCC(n2cnc(-c3cccc(F)c3)c2)CC1` [Example 64], `CC(C)(C)NC(=O)N1CCC(n2cnc(-c3ccccc3)c2C#N)CC1` [Example 100] is higher in activity at 10 µM: 149% for the first, 708% for the second.

First: N#Cc1c(-c2cccc(F)c2)ncn1C1CCN(C(=O)C2CCC(F)(F)CC2)CC1 [Example 155]
Second: N#Cc1c(-c2cccc(Cl)c2)ncn1C1CCN(C(=O)C2CCC(F)(F)CC2)CC1 [Example 160]
The activity at 10 µM of the first is lower: 252% for the first, 367% for the second.

Compared with `CC(C)(F)C(=O)N[C@H]1CC[C@@H](n2cnc(-c3ccc(F)cc3)c2C#N)CC1` [Example 332, N-{cis-4-[5-cyano-4-(4-fluorophenyl)-1H-imidazol-1-yl]cyclohexyl}-2-fluoro-2-methylpropanamide], `O=C(N[C@H]1CC[C@@H](n2cnc(-c3ccc(F)cc3)c2)CC1)C(F)F` [Example 289] is lower in activity at 10 µM: 464% for the first, 125% for the second.

First: O=C(NC1CCCCC1)N1CCC(n2cc(-c3ccccc3)nc2Cl)CC1 [Example 116]
Second: COC1CCC(NC(=O)N2CCC(n3cnc(-c4ccccc4)c3)CC2)CC1 (stereo not shown) [Example 40]
The activity at 10 µM of the first is higher: 131% for the first, 129% for the second.

Compared with `O=C(C1CCC(F)(F)CC1)N1[C@@H]2CC[C@H]1C[C@@H](n1cnc(-c3ccc(F)cc3)c1)C2` [Example 425], `O=C(C1CCOCC1)N1[C@@H]2CC[C@H]1C[C@@H](n1cnc(-c3cccc(F)c3F)c1Cl)C2` [Example 440] is higher in activity at 10 µM: 155% for the first, 508% for the second.

Compared with `O=C(c1ccc(F)cn1)N1CCC(n2cnc(-c3ccc(Cl)cc3)c2)CC1` [Example 141], `O=C(NC1CCOCC1)N1CCC(n2cnc(-c3ccccc3F)c2Cl)CC1` [Example 252] is higher in activity at 10 µM: 253% for the first, 648% for the second.

Same assay, conditions: comparison across Tables 18 to 25

`O=C(NC1CCOCC1)[C@H]1CC[C@@H](n2cnc(-c3ccc(Cl)cc3)c2Cl)CC1` [Example 363] was tested, and the “PAM activity for α7 nAChR (in words)” value was “stronger PAM activity than others”.
In the case of `O=C(NC1CCOCC1)N1CCC(n2cnc(-c3ccc(C(F)(F)F)cc3)c2Cl)CC1` [Example 93], the “PAM activity for α7 nAChR (in words)” value was “stronger PAM activity than others”.
